Format in all cases: cell-based
The subject of assay [1] is PBMCs. Put plainly: LPS-induced TNFα/IL-8 release in PBMC cells. The conditions noted are these: Homo sapiens, assay (b), read-out: IC50 Values for Inhibition of Cytokine Release PBMCs IL-8. In outline: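 Healthy-donor PBMCs isolated by density gradient were pretreated with compound for 2 h, then stimulated with 1 ng/mL LPS (E. coli 0111:B4) for 24 h at 37° C., 5% CO2. IL-8 and TNFα in supernatants measured by sandwich ELISA.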

Assay [2] deals with HT29 cells. As to the kind of experiment: IL-1β-induced IL-8 release in HT29 cells. To be noted: Homo sapiens, HT-29, assay (d), read-out: IC50 Values for Inhibition of Cytokine Release HT29 cells IL-8. On the procedure: HT29 cells, a human colon adenocarcinoma cell line, are plated in a 96 well plate (24 hr) and pre-treated with compounds at the desired concentration for 2 hours before addition of 5 ng/mL of IL-1β (Abcam) for 24 hours. Supernatants are harvested for IL-8 quantification by Sandwich ELISA (Duo-set, R&D System). The IC50 is determined from the dose response curve.

Assay [3] deals with PBMCs. As to the kind of experiment: IL-2 and IFN gamma release in CD3/CD28 stimulated PBMC cells. The conditions noted are these: Homo sapiens, assay (c). On the procedure: PBMCs from healthy subjects are separated from whole blood using a density gradient (Lymphoprep, Axis-Shield Healthcare). Cells are added to a 96 well plate pre-coated with a mixture of CD3/CD28 monoclonal antibodies (0.3 μg/mL eBioscience and 3 μg/mL BD Pharmingen respectively). Compound at the desired concentration is then added to the wells and the plate left for 3 days under normal tissue culture conditions. […] The IC50 is determined from the dose response curve.

Assay [4] relates to PBMCs. Put plainly: Cell mitosis assay in PBMCs. The conditions noted are these: Homo sapiens, PBMC, 5 μg/mL. On the procedure: Peripheral blood mononucleocytes (PBMCs) from healthy subjects are separated from whole blood (Quintiles, London, UK) using a density gradient (Histopaque®-1077, Sigma-Aldrich, Poole, UK). The PBMCs (3 million cells per sample) are subsequently treated with 2% PHA (phytohaemagglutinin, Sigma-Aldrich, Poole, UK) for 48 hr, followed by a 20 hr exposure to varying concentrations of test compounds. At 2 hr before collection, PBMCs are treated with demecolcine (0.1 μg/mL; Invitrogen, Paisley, UK) to arrest cells in metaphase. To observe mitotic cells, PBMCs are permeabilised and fixed by adding Intraprep (50 μL; Beckman Coulter, France), and stained with anti-phospho-histone 3 (0.26 ng/L; #9701; Cell Signalling, Danvers, Mass.) and propidium iodide (1 mg/mL; Sigma-Aldrich, Poole, UK) as previously described (Muehlbauer P. A. and Schuler M. J., Mutation Research, 2003, 537:117-130). Fluorescence is observed using an ATTUNE flow cytometer (Invitrogen, Paisley, UK), gating for lymphocytes.

The mark [5] stands for this setting: read-out: IC50 Values for Inhibition of Cytokine Release PBMCs IFNγ.
The mark [6] stands for this setting: read-out: IC50 Values for Inhibition of Cytokine Release PBMCs IL-2.

The structures appear in SMILES notation.

With `COCCOCCOCCOc1cc(Nc2nccc(Oc3ccc(NC(=O)Nc4cc(C(C)(C)C)cc(NS(C)(=O)=O)c4-c4ccccc4)c4ccccc34)n2)cc(OC)c1` [83(a), N-(4-(tert-butyl)-6-(3-(4-((2-((3-methoxy-5-(2-(2-(2-methoxyethoxy)ethoxy)ethoxy)phenyl)-amino)pyrimidin-4-yl)oxy)naphthalen-1-yl)ureido)-[1,1′-biphenyl]-2-yl)methane-sulfonamide], the IC50 was determined as 39 nM in assay [1] and 62.5 nM in assay [2].
With `C#Cc1cc(Nc2nccc(Oc3ccc(NC(=O)Nc4cc(C(C)(C)C)cc(NS(C)(=O)=O)c4OC)c4ccccc34)n2)cc(C(=O)NCCN2CCOCC2)c1` [Example 1, 3-((4-((4-(3-(5-(tert-Butyl)-2-methoxy-3-(methylsulfonamido)phenyl)ureido)naphthalen-1-yl)oxy)pyrimidin-2-yl)amino)-5-ethynyl-N-(2-morpholinoethyl)benzamide], the IC50 in assay [1] was found to be 1.4 nM; in assay [3] (setting [5]), 10.4 nM; in assay [3] (setting [6]), 112 nM. In assay [4], this molecule registered an inhibition at 5 µg/mL of 22.1%.
Turning to `C#Cc1cc(Nc2nccc(Oc3ccc(NC(=O)Nc4cc(F)cc(N5CCOCC5)c4)c4ccccc34)n2)cc(C(=O)NCCN2CCOCC2)c1` [Example 2, 3-Ethynyl-5-((4-((4-(3-(3-fluoro-5-morpholinophenyl)ureido)naphthalen-1-yl)oxy)-pyrimidin-2-yl)amino)-N-(2-morpholinoethyl)benzamide], the IC50 is 142 nM in assay [1] and 35.7 nM in assay [3] (setting [5]). The inhibition at 5 µg/mL in assay [4] was 4%.
Regarding `COc1cc(Nc2nccc(Oc3ccc(NC(=O)Nc4cc(C(C)(C)C)cc(NS(C)(=O)=O)c4OC)c4ccccc34)n2)cc(C(=O)NCCN2CCOCC2)c1` [Example 6, 3-((4-((4-(3-(5-(tert-Butyl)-2-methoxy-3-(methylsulfonamido)phenyl)ureido)naphthalen-1-yl)oxy)pyrimidin-2-yl)amino)-5-methoxy-N-(2-morpholinoethyl)benzamide], the IC50 amounted to 0.8 nM in assay [1], 9.3 nM in assay [3] (setting [5]) and 89.9 nM in assay [3] (setting [6]). In assay [4], the inhibition at 5 µg/mL amounted to 41.7%.
In the case of `CNC(=O)c1cc(C(C)(C)C)cc(NC(=O)Nc2ccc(Oc3ccnc(Nc4cc(OC)cc(OCCOCCOCCOC)c4)n3)c3ccccc23)c1OC` [Example 13, 5-(tert-Butyl)-2-methoxy-3-(3-(4-((2-((3-methoxy-5-(2-(2-(2-methoxyethoxy)ethoxy)-ethoxy)phenyl)amino)pyrimidin-4-yl)oxy)naphthalen-1-yl)ureido)-N-methylbenzamide], the IC50 in assay [1] came out at 1.3 nM; in assay [3] (setting [5]) it was 4.6 nM; in assay [3] (setting [6]) it was 57.4 nM. For the same molecule, in assay [4], 5 µg/mL produced 46.1% inhibition.
For `COCCOCCOCCOc1cc(Nc2nccc(Oc3ccc(NC(=O)Nc4cc(C(C)(C)C)cc(C(N)=O)c4OC)c4ccccc34)n2)cc(OC)c1` [Example 20, 5-(tert-Butyl)-2-methoxy-3-(3-(4-((2-((3-methoxy-5-(2-(2-(2-methoxyethoxy)ethoxy)-ethoxy)phenyl)amino)pyrimidin-4-yl)oxy)naphthalen-1-yl)ureido)benzamide], in that order: 1.1 nM, 9 nM, 84.3 nM and 44.3%.
The matching figures for `COCCOCCOCCOc1cc(Nc2nccc(Oc3ccc(NC(=O)Nc4cc(NS(C)(=O)=O)cc(C(C)(C)C)c4)c4ccccc34)n2)cc(OC)c1` [Example 24, N-(3-(tert-Butyl)-5-(3-(4-((2-((3-methoxy-5-(2-(2-(2-methoxyethoxy)ethoxy)ethoxy)-phenyl)amino)pyrimidin-4-yl)oxy)naphthalen-1-yl)ureido)phenyl)methanesulfonamide]: 1.9 nM, 10.7 nM, 24.9 nM and 22.5%.
For `COCCOCCOCCOc1cc(Nc2nccc(Oc3ccc(NC(=O)Nc4cc(C(C)(C)C)cc(C(=O)NCCO)c4OC)c4ccccc34)n2)cc(OC)c1` [Example 35, 5-(tert-Butyl)-N-(2-hydroxyethyl)-2-methoxy-3-(3-(4-((2-((3-methoxy-5-(2-(2-(2-methoxy-ethoxy)ethoxy)ethoxy)phenyl)amino)pyrimidin-4-yl)oxy)naphthalen-1-yl)ureido)-benzamide], in that order: 1.4 nM, 3.5 nM, 51 nM and 41.1%.
As to `COCCOCCOCCOc1cc(Nc2nccc(Oc3ccc(NC(=O)Nc4cc(C(C)(C)C)cc(C(=O)NCCN(C)C)c4OC)c4ccccc34)n2)cc(OC)c1` [Example 46, 5-(tert-Butyl)-N-(2-(dimethylamino)ethyl)-2-methoxy-3-(3-(4-((2-((3-methoxy-5-(2-(2-(2-methoxyethoxy)ethoxy)ethoxy)phenyl)amino)pyrimidin-4-yl)oxy)naphthalen-1-yl)ureido)-benzamide], the IC50 worked out at 0.9 nM in assay [1] and 2 nM in assay [3] (setting [5]). The inhibition at 5 µg/mL in assay [4] was 67.1%.
Regarding `COc1cc(Nc2cc(Oc3ccc(NC(=O)Nc4cc(C(C)(C)C)cc(C(N)=O)c4OC)c4ccccc34)ccn2)cc(C(=O)NCCN2CCOCC2)c1` [Example 47, 3-((4-((4-(3-(5-(tert-Butyl)-3-carbamoyl-2-methoxyphenyl)ureido)naphthalen-1-yl)oxy)pyridin-2-yl)amino)-5-methoxy-N-(2-morpholinoethyl)benzamide], the IC50 was 1.6 nM in assay [1], 7.3 nM in assay [3] (setting [5]) and 102 nM in assay [3] (setting [6]). This molecule also displayed an inhibition at 5 µg/mL in assay [4] of 59.1%.
For `C#Cc1cc(Nc2cc(Oc3ccc(NC(=O)Nc4cc(C(C)(C)C)cc(NS(C)(=O)=O)c4OC)c4ccccc34)ccn2)cc(C(=O)NCCOCCOCCOC)c1` [Example 54, 3-((4-((4-(3-(5-(tert-Butyl)-2-methoxy-3-(methylsulfonamido)phenyl)ureido)naphthalen-1-yl)oxy)pyridin-2-yl)amino)-5-ethynyl-N-(2-(2-(2-methoxyethoxy)ethoxy)ethyl)benzamide], in that order: 1.6 nM, 33.3 nM, 354 nM and 37.8%.
As for `COCCOCCOCCOc1cc(Nc2nccc(Oc3ccc(NC(=O)Nc4cc(C(C)(C)C)cc(-c5nnco5)c4OC)c4ccccc34)n2)cc(OC)c1` [Example 59, 1-(5-(tert-Butyl)-2-methoxy-3-(1,3,4-oxadiazol-2-yl)phenyl)-3-(4-((2-((3-methoxy-5-(2-(2-(2-methoxyethoxy)ethoxy)ethoxy)phenyl)amino)pyrimidin-4-yl)oxy)naphthalen-1-yl)urea], the IC50 in assay [1] was 3.3 nM; in assay [3] (setting [5]), 7.6 nM; in assay [3] (setting [6]), 58.6 nM. The molecule also displayed an inhibition at 5 µg/mL in assay [4] of 55.3%.
For `C#Cc1cc(Nc2cc(Oc3ccc(NC(=O)Nc4cc(C(C)(C)C)cc(NS(C)(=O)=O)c4OC)c4ccccc34)ccn2)cc(C(=O)N[C@@H](C)COCCOCCOC)c1` [Example 67, (S)-3-((4-((4-(3-(5-(tert-Butyl)-2-methoxy-3-(methylsulfonamido)phenyl)ureido)-naphthalen-1-yl)oxy)pyridin-2-yl)amino)-5-ethynyl-N-(1-(2-(2-methoxyethoxy)ethoxy)-propan-2-yl)benzamide], in that order: 2.7 nM, 39.5 nM, 200 nM and 35.6%.
Consider `COc1c(NC(=O)Nc2ccc(Oc3ccnc(NCc4ccccn4)c3)c3ccccc23)cc(C(C)(C)C)cc1C(=O)NC1COC1` [Example 80, 5-(tert-Butyl)-2-methoxy-N-(oxetan-3-yl)-3-(3-(4-((2-((pyridin-2-ylmethyl)amino)pyridin-4-yl)oxy)naphthalen-1-yl)ureido)benzamide], for which the IC50 in assay [1] amounted to 4.3 nM; in assay [3] (setting [5]) it was 23.8 nM. In assay [4], this molecule showed an inhibition at 5 µg/mL of 70.4%.
In the case of `COc1cccc(Nc2cc(Oc3ccc(NC(=O)Nc4cc(C(C)(C)C)cc(C(=O)NC5COC5)c4OC)c4ccccc34)ccn2)c1` [Example 81, 5-(tert-Butyl)-2-methoxy-3-(3-(4-((2-((3-methoxyphenyl)amino)pyridin-4-yl)oxy)naphthalen-1-yl)ureido)-N-(oxetan-3-yl)benzamide], the IC50 in assay [1] was 2.7 nM; in assay [3] (setting [5]) it was 4 nM; in assay [3] (setting [6]), 98.8 nM. In addition, the inhibition at 5 µg/mL in assay [4] was 58.1%.

The record behind these values is patent publication US10435361B2, “Kinase inhibitors” (Topivert Pharma Limited, priority 2013, dated 2019).
